{
  "source": "paper PMC5762913",
  "about": "“Probing the molecular basis of hERG drug block with unnatural amino acids” (Scientific Reports, 2018)",
  "key": {"hERG Tyr652 and Phe656": {"tested_on": "hERG Tyr652 and Phe656", "test": "Assessment of cation-π interaction in hERG drug block across fluorinated Phe series", "conditions": "judged from IC50 across Y652 and F656 fluorinated Phe series", "text": "Testing whether a cation-π relationship occurs at an aromatic residue can be accomplished by measuring the impact of substitution with a series of fluorinated aromatic amino acids. Successive fluorinations of aromatic side chains yield additive reductions in ability to donate π electrons to cation-π interactions[30]. Through the use of nonsense suppression, we incorporated singly and doubly fluorinated phenylalanine derivatives at both Tyr652 and Phe656. These UAA also have the advantage of providing a sterically conservative means of studying the specific nature of interactions of individual residues. If hERG drug interactions depend largely on cation-π binding interactions at sites Tyr652 and Phe656, then successive fluorinations at these sites should decrease drug affinity in a linear manner[30].\nThis protocol is repeated in successive sweeps as either control or drug-containing solutions flow into the bath chamber and over the oocyte. […] The steady state current at −50 mV reached at each drug concentration was normalized to the steady state current at −50 mV with no drug. From these normalized values, a concentration-response curve was generated and fit with a Hill equation. IC50 and Hill coefficient values were generated from each Hill fit. […]"}, "hERG S631A": {"tested_on": "hERG S631A", "conditions": "S631A mutation which abolishes inactivation, versus WT; cited from earlier work"}, "[1]": {"tested_on": "nicotinic receptor α-subunit Trp-149 doubly fluorinated", "parameters": "method as in PMID 9770444", "conditions": "doubly fluorinating Trp-149 in the α-subunit; cited from earlier work"}},
  "data": [
    {"smiles": "CN(CCOc1ccc(NS(C)(=O)=O)cc1)CCc1ccc(NS(C)(=O)=O)cc1", "note": "[Dofetilide, dofetilide]", "values": [
      {"measurement": "Cation – π behaviour?", "setting": "hERG Tyr652 and Phe656", "value": "No"},
      {"measurement": "potency of block", "setting": "hERG S631A", "value": "reduced"}
    ]},
    {"smiles": "C=C[C@H]1C[N@@]2CC[C@H]1C[C@@H]2[C@@H](O)c1ccnc2ccc(OC)cc12", "note": "[Quinidine, quinidine]", "values": [
      {"measurement": "Cation – π behaviour?", "setting": "hERG Tyr652 and Phe656", "value": "No"},
      {"measurement": "potency of block", "setting": "hERG S631A", "value": "reduced"}
    ]},
    {"smiles": "CC(=O)OCC[N+](C)(C)C", "note": "[acetyl choline]", "values": [
      {"measurement": "reduction of potency", "setting": "[1]", "value": "nearly an order of magnitude"}
    ]}
  ]
}
